Measurements: US10414811B2, “Protease-resistant lipidated GLP-1 analogs” (MEDIMMUNE LIMITED, priority 2015, dated 2019)
Like-named read-outs stand apart in the source and are kept apart here. Numbered stars: 1 amine (or outer) side, 2 acyl side, 3 side chain; on linkers, the order of the positions; unused ones are H or OH. Square brackets hold non-standard residues; d marks the D form. Side chains are listed from the residue outwards. Peptide text beside a SMILES is read from it. * marks the point of attachment. γGlu = O=C(O)[C@H](CCC(=O)[*:2])N[*:1]; αMeF = C[C@](N)(Cc1ccccc1)C(=O)O; αMeK = C[C@](N)(CCCCN)C(=O)O; Lauroyl = CCCCCCCCCCCC(=O)*; AEEA = NCCOCCOCC(=O)O; Aib = CC(C)(N)C(=O)O

Experiments:
Format in all cases: cell-based
[1] = molecular target: T1, human glucose-dependent insulinotropic peptide receptor (GIPR) (Homo sapiens, UniProt P48546); assay: cAMP assay, human GIPR cells; conditions: cAMP assay
T1 construct: expressed in transfected cells
T1 sequence (P48546 22-466): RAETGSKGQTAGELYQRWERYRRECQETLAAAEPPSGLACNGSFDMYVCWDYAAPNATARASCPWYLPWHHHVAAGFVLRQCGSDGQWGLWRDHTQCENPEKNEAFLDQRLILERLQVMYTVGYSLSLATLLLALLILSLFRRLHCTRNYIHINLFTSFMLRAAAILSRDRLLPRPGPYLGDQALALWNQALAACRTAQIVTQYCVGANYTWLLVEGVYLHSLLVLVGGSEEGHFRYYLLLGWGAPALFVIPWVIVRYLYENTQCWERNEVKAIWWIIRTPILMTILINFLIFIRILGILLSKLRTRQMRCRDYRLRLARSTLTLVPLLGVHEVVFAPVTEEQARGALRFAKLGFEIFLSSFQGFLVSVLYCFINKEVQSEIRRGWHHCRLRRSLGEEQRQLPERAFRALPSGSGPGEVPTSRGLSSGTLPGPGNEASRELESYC
Method: (§1) Sample dilutions are made in duplicate.
(§2) A frozen cryo-vial of cells expressing the receptor of interest is thawed rapidly in a water-bath, transferred to pre-warmed assay buffer and spun at 240×g for 5 minutes. Cells are re-suspended in assay buffer at a batch-dependent optimized concentration (e.g. hGCGR cells at 2×10^5 cells/ml, hGLP-1R and hGIPR cells at 1×10^5 cells/ml).
(§3) To this, 5 μL cell suspension is added and the plates incubated at room temperature for 30 minutes.
(§4) cAMP levels are measured using a commercially available cAMP dynamic 2 HTRF kit (Cisbio, Cat #62AM4PEJ), following the two step protocol as per manufacturer's recommendations. In brief; anti-cAMP cryptate (donor fluorophore) and cAMP-d2 (acceptor fluorophore) are made up separately by diluting each 1/20 in conjugate & lysis buffer provided in the kit. 5 μL anti-cAMP cryptate is added to wells of the assay plate, and 5 μL cAMP-d2 is added to wells except non-specific binding (NSB) wells, to which conjugate and lysis buffer are added. […] EC50 values of the synthetic peptides determined in cAMP assays are then determined.
(§5) Data is transformed to % Delta F as described in the manufacturer's guidelines and analyzed by 4-parameter logistic fit to determine EC50 values. […] To compare the balance of activities at the GLP-1R and GCGR between different peptides and across different conditions, these can be correlated, where the EC50's are related to those of comparator peptides.

[2] = molecular target: T2, human glucagon receptor (GCGR) (Homo sapiens, UniProt P47871); assay: cAMP assay, human GCGR cells; conditions: cAMP assay
T2 construct: expressed in transfected cells
Method: as §1, §2, §3, §4, §5

[3] = molecular target: T3, human GLP-1 receptor (GLP-1R) (Homo sapiens, UniProt P43220); assay: cAMP assay, human GLP-1R cells; conditions: bis-lipidated peptides
T3 construct: expressed in transfected cells
Method: as §1, §2, §3, §4, §5

[4] = first determination (n1), read-out: Primary assay EC50 GIP-R (n1)
[5] = second determination (n2), read-out: Primary assay EC50 GIP-R (n2)
[6] = first determination (n1), read-out: Primary assay EC50 Gluc-R (n1)
[7] = second determination (n2), read-out: Primary assay EC50 Gluc-R (n2)
[8] = mean of n1 and n2, read-out: Primary assay EC50 Mean pM GLP-1R
[9] = replicate n1, read-out: Primary assay EC50 GLP-1R n1
[10] = replicate n2, read-out: Primary assay EC50 GLP-1R n2

T3 sequence (P43220 24-463): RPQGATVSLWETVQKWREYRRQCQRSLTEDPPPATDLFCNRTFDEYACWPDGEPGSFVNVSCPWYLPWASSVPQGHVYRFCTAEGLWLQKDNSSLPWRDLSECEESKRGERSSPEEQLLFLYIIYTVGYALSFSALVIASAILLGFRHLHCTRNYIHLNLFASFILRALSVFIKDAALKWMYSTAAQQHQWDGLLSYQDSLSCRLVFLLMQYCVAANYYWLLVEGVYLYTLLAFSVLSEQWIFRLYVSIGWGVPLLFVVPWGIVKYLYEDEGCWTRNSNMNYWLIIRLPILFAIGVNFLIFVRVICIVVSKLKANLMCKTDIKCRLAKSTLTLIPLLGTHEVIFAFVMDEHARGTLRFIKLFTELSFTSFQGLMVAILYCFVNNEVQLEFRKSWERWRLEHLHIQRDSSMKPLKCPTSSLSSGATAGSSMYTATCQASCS
T2 sequence (P47871 26-477): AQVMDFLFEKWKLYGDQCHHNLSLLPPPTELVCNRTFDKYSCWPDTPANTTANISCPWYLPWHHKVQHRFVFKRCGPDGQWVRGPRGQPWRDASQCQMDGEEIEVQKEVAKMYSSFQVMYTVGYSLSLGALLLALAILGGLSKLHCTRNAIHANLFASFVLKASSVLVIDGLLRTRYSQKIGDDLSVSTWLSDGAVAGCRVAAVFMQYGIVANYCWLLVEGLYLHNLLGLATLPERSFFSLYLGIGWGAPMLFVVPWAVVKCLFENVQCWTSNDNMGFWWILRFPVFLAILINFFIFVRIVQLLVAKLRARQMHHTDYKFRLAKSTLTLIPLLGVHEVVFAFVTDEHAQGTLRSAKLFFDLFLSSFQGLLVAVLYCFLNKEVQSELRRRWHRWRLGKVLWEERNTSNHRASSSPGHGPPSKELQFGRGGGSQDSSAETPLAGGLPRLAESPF

| SMILES | EC50 [1, 4] | EC50 [1, 5] | EC50 [2, 6] | EC50 [2, 7] | EC50 [3, 8] | EC50 [3, 9] | EC50 [3, 10] |
| --- | --- | --- | --- | --- | --- | --- | --- |
| CC[C@H](C)[C@H](NC(=O)[C@](C)(Cc1ccccc1)NC(=O)[C@H](CCC(=O)O)NC(=O)[C@](C)(CCCCN)NC(=O)[C@H](C)NC(=O)[C@H](C)NC(=O)[C@H](CCC(=O)O)NC(=O)CNC(=O)[C@H](CCC(=O)O)NC(=O)[C@H](CC(C)C)NC(=O)[C@](C)(Cc1ccccc1)NC(=O)[C@H](CO)NC(=O)[C@H](CO)NC(=O)[C@@H](NC(=O)[C@H](CCC(=O)O)NC(=O)[C@H](CO)NC(=O)[C@H](CO)NC(=O)[C@](C)(Cc1ccccc1)NC(=O)[C@H](CO)NC(=O)CNC(=O)[C@H](CCC(=O)O)NC(=O)C(C)(C)NC(=O)[C@@H](N)Cc1c[nH]cn1)C(C)C)C(=O)N[C@@H](C)C(=O)N[C@@](C)(Cc1ccccc1)C(=O)N[C@H](C(=O)N[C@H](C(=O)N[C@@](C)(CCCCN)C(=O)NCC(=O)NCC(N)=O)C(C)C)C(C)C [compound 9] (H-H[Aib]EGS[αMeF]SSEVSS[αMeF]LEGEAA[αMeK]E[αMeF]IA[αMeF]VV[αMeK]GG-NH2; N-terminus assumed) | ≥ 29 nM | ≥ 29 nM | ≥ 29 nM | ≥ 29 nM |  |  |  |
| CC[C@H](C)[C@H](NC(=O)[C@](C)(Cc1ccccc1)NC(=O)[C@H](CCC(=O)O)NC(=O)[C@](C)(CCCCN)NC(=O)[C@H](C)NC(=O)[C@H](C)NC(=O)[C@H](CCC(=O)O)NC(=O)CNC(=O)[C@H](CCC(=O)O)NC(=O)[C@@H](NC(=O)[C@](C)(Cc1ccccc1)NC(=O)[C@H](CO)NC(=O)[C@H](CO)NC(=O)[C@@H](NC(=O)[C@H](CC(=O)O)NC(=O)[C@H](CO)NC(=O)[C@@H](NC(=O)[C@](C)(Cc1ccccc1)NC(=O)[C@H](CO)NC(=O)CNC(=O)[C@H](CCC(=O)O)NC(=O)C(C)(C)NC(=O)[C@@H](N)Cc1c[nH]cn1)[C@@H](C)O)C(C)C)C(C)C)C(=O)N[C@@H](C)C(=O)N[C@@](C)(Cc1ccccc1)C(=O)N[C@H](C(=O)N[C@H](C(=O)N[C@@](C)(CCCCN)C(=O)NCC(=O)NCC(N)=O)C(C)C)C(C)C [compound 10] (H-H[Aib]EGS[αMeF]TSDVSS[αMeF]VEGEAA[αMeK]E[αMeF]IA[αMeF]VV[αMeK]GG-NH2; N-terminus assumed) | ≥ 100 nM | ≥ 100 nM | ≥ 100 nM | ≥ 100 nM |  |  |  |
| CC(C)[C@H](NC(=O)[C@H](CCC(=O)O)NC(=O)[C@H](CO)NC(=O)[C@H](CO)NC(=O)[C@](C)(Cc1ccccc1)NC(=O)[C@H](CO)NC(=O)CNC(=O)[C@H](CCC(=O)O)NC(=O)C(C)(C)NC(=O)[C@@H](N)Cc1c[nH]cn1)C(=O)N[C@@H](CO)C(=O)N[C@@H](CO)C(=O)N[C@@](C)(Cc1ccccc1)C(=O)N[C@H](C(=O)N[C@@H](CCC(=O)O)C(=O)NCC(=O)N[C@@H](CCC(=O)O)C(=O)N[C@@H](C)C(=O)N[C@@H](C)C(=O)N[C@@](C)(CCCCN)C(=O)N[C@@H](CCC(=O)O)C(=O)N[C@@](C)(Cc1ccccc1)C(=O)N[C@H](C(=O)N[C@@H](C)C(=O)N[C@@](C)(Cc1ccccc1)C(=O)N[C@H](C(=O)N[C@H](C(=O)N[C@@](C)(CCCCN)C(=O)NCC(=O)NCC(N)=O)C(C)C)C(C)C)C(C)C)C(C)C [compound 12] (H-H[Aib]EGS[αMeF]SSEVSS[αMeF]VEGEAA[αMeK]E[αMeF]VA[αMeF]VV[αMeK]GG-NH2) | 45 nM | 45 nM | 10 nM | 13 nM |  |  |  |
| CC[C@H](C)[C@H](NC(=O)[C@H](Cc1ccccc1)NC(=O)[C@H](CCC(=O)O)NC(=O)[C@H](CCCCN)NC(=O)[C@H](C)NC(=O)[C@H](C)NC(=O)[C@H](CCC(N)=O)NC(=O)CNC(=O)[C@H](CCC(=O)O)NC(=O)[C@H](CC(C)C)NC(=O)[C@H](Cc1ccc(O)cc1)NC(=O)[C@H](CO)NC(=O)[C@H](CO)NC(=O)[C@@H](NC(=O)[C@H](CC(=O)O)NC(=O)[C@](C)(CO)NC(=O)[C@@H](NC(=O)[C@H](Cc1ccccc1)NC(=O)[C@@H](NC(=O)CNC(=O)[C@H](CCC(=O)O)NC(=O)C(C)(C)NC(=O)[C@@H](N)Cc1c[nH]cn1)[C@@H](C)O)[C@@H](C)O)C(C)C)C(=O)N[C@@H](C)C(=O)N[C@@H](Cc1c[nH]c2ccccc12)C(=O)N[C@@H](CC(C)C)C(=O)N[C@H](C(=O)N[C@@H](CCCCN)C(=O)NCC(=O)N[C@@H](CCCNC(=N)N)C(N)=O)C(C)C [compound 19] | ≥ 130 nM | ≥ 130 nM | ≥ 130 nM | ≥ 130 nM |  |  |  |
| CCCCCCCCCCCC(=O)N[C@@H](CCC(=O)NCCOCCOCC(=O)NCCOCCOCC(=O)NCCCC[C@H](NC(=O)[C@H](CC(=O)O)NC(=O)[C@H](CO)NC(=O)[C@@H](NC(=O)[C@](C)(Cc1ccccc1)NC(=O)[C@H](CO)NC(=O)CNC(=O)[C@H](CCC(=O)O)NC(=O)C(C)(C)NC(=O)[C@@H](N)Cc1c[nH]cn1)[C@@H](C)O)C(=O)N[C@@H](CO)C(=O)N[C@@H](CO)C(=O)N[C@@H](Cc1ccc(O)cc1)C(=O)N[C@@H](CC(C)C)C(=O)N[C@@H](CCC(=O)O)C(=O)NCC(=O)N[C@@H](CCC(=O)O)C(=O)N[C@@H](C)C(=O)N[C@@H](C)C(=O)N[C@@](C)(CCCCN)C(=O)N[C@@H](CCC(=O)O)C(=O)N[C@@H](Cc1ccccc1)C(=O)N[C@H](C(=O)N[C@@H](CCCCNC(=O)COCCOCCNC(=O)COCCOCCNC(=O)CC[C@H](NC(=O)CCCCCCCCCCC)C(=O)O)C(=O)N[C@@H](Cc1c[nH]c2ccccc12)C(=O)N[C@H](C(=O)N[C@H](C(=O)N[C@@H](CCC(=O)O)C(=O)NCC(=O)NCC(N)=O)C(C)C)C(C)C)[C@@H](C)CC)C(=O)O [compound 256] (H-H[Aib]EGS[αMeF]TSDK([AEEA-AEEA-γGlu-Lauroyl])SSYLEGEAA[αMeK]EFIK([AEEA-AEEA-γGlu-Lauroyl])WVVEGG-NH2) |  |  |  |  | 7.5 pM | 9.46 pM | 5.57 pM |
| CCCCCCCCCCCC(=O)N[C@@H](CCC(=O)NCCOCCOCC(=O)NCCOCCOCC(=O)NCCCC[C@H](NC(=O)[C@H](CC(=O)O)NC(=O)[C@H](CO)NC(=O)[C@@H](NC(=O)[C@](C)(Cc1ccccc1)NC(=O)[C@H](CO)NC(=O)CNC(=O)[C@H](CCC(=O)O)NC(=O)C(C)(C)NC(=O)[C@@H](N)Cc1c[nH]cn1)[C@@H](C)O)C(=O)N[C@@H](CO)C(=O)N[C@@H](CO)C(=O)N[C@@H](Cc1ccc(O)cc1)C(=O)N[C@@H](CC(C)C)C(=O)N[C@@H](CCC(=O)O)C(=O)NCC(=O)N[C@@H](CCC(=O)O)C(=O)N[C@@H](C)C(=O)N[C@@H](C)C(=O)N[C@@](C)(CCCCN)C(=O)N[C@@H](CCC(=O)O)C(=O)N[C@@H](Cc1ccccc1)C(=O)N[C@H](C(=O)N[C@@H](C)C(=O)N[C@@H](Cc1c[nH]c2ccccc12)C(=O)N[C@@H](CCCCNC(=O)COCCOCCNC(=O)COCCOCCNC(=O)CC[C@H](NC(=O)CCCCCCCCCCC)C(=O)O)C(=O)N[C@H](C(=O)N[C@@H](CCC(=O)O)C(=O)NCC(=O)NCC(N)=O)C(C)C)[C@@H](C)CC)C(=O)O [compound 258] (H-H[Aib]EGS[αMeF]TSDK([AEEA-AEEA-γGlu-Lauroyl])SSYLEGEAA[αMeK]EFIAWK([AEEA-AEEA-γGlu-Lauroyl])VEGG-NH2; N-terminus assumed) |  |  |  |  | 92.3 pM | 59.6 pM | 125 pM |
